Test results from patent US20160015064A1, “COMPOUNDS, COMPOSITIONS, AND METHODS FOR MODULATING SWEET TASTE” (CHROMOCELL CORPORATION, priority 2013, published 2016).

Assay: Beverage emulsion delivery systems, physical stability
Format: physicochemical
Conditions: NEOBEE® M-5 oil phase with Q-NATURALE®, no weighting agent
Description: Utilizing the triacetin and NEOBEE® M-5 oil solutions described in Example 6, emulsion systems were prepared to develop a clear delivery system. A suitable emulsion system would need to have a particle size of under 100 nanometers. A series of trials were conducted in which the triacetin and NEOBEE® M-5 oil solutions were combined with a variety of matrices including preserved water (i.e., water comprising 500 ppm sodium benzoate, 400 ppm potassium sorbate and 1000 ppm citric acid), Q-[…]®, lecithin, lyso-lecithin, and citrus oil. Pre-homogenization utilizing a Silverson High Shear mixer and final homogenization utilizing a high pressure homogenizer at 20,000 psi (up to 10 passes) only achieved a particle size reduction to 146 nanometers. The emulsions were stable in beverage but were opaque. […] Therefore incorporating the compounds into a cloudy beverage emulsion or homogenizing it into a cloudy citrus (orange juice) product may be beneficial. Without being bound by theory, the opacity of the beverage would, in effect, shield the compound from the detriment of light.
For a standard beverage emulsion, the compounds need to be dissolved in the oil phase of the emulsion. Unfortunately, the compounds were mostly insoluble in citrus oil (orange oil 5×). […]

COc1ccc(C2CC(=O)c3c(O)cccc3O2)cc1O (single isomer, unassigned) [Compound 3, 5-hydroxy-2-(3-hydroxy-4-methoxyphenyl)chroman-4-one]
Physical stability of emulsion: physically stable
